Measured values: ChEMBL document CHEMBL1201862, “PubChem BioAssay data set” (2004)
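96-well plates; 48 h exposure; 5 concentrations. Endpoints by linear interpolation between flanking doses. Not reached: highest tested concentration assigned. GI50 is the concentration that inhibits growth by half.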 Activity calls are given as the source filed them. No stated cut-off is given here; in the data, active = GI50 up to about 1.1 µM and inactive = higher.

Columns and labels:
Test in all cases: growth of human tumour cells (NCI), 48 h
NCI/ADR-RES = system: NCI/ADR-RES
786-0 = system: 786-0
UO-31 = system: UO-31
CCRF-CEM = system: CCRF-CEM
HL-60 = system: HL-60
RXF 393 = system: RXF 393
BT-549 = system: BT-549
NCI-H460 = system: NCI-H460
TK-10 = system: TK-10
KM12 = system: KM12
CAKI-1 = system: CAKI-1
HCC 2998 = system: HCC 2998
SF-268 = system: SF-268
SF-295 = system: SF-295
HCT-116 = system: HCT-116
RPMI-8226 = system: RPMI-8226
HCT-15 = system: HCT-15
EKVX = system: EKVX
M14 = system: M14
SNB-75 = system: SNB-75
COLO 205 = system: COLO 205
SK-MEL-28 = system: SK-MEL-28
DU-145 = system: DU-145
SW-620 = system: SW-620
A549 = system: A549
SNB-19 = system: SNB-19
HOP-92 = system: HOP-92
MCF7 = system: MCF7
OVCAR-3 = system: OVCAR-3
OVCAR-8 = system: OVCAR-8
OVCAR-5 = system: OVCAR-5
SK-MEL-2 = system: SK-MEL-2
MDA-MB-435 = system: MDA-MB-435
PC-3 = system: PC-3
OVCAR-4 = system: OVCAR-4
SN12C = system: SN12C
MDA-MB-231 = system: MDA-MB-231
A498 = system: A498
SK-MEL-5 = system: SK-MEL-5
UACC-62 = system: UACC-62
K562 = system: K562
SF-539 = system: SF-539
LOX IMVI = system: LOX IMVI
NCI-H226 = system: NCI-H226
NCI-H522 = system: NCI-H522
Hs-578T = system: Hs-578T
U-251 = system: U-251
MOLT-4 = system: MOLT-4
UACC-257 = system: UACC-257
HT-29 = system: HT-29
T47D = system: T47D
MDA-N = system: MDA-N
HOP-62 = system: HOP-62
SK-OV-3 = system: SK-OV-3
ACHN = system: ACHN
IGROV-1 = system: IGROV-1
Malme-3M = system: Malme-3M
NCI-H23 = system: NCI-H23

O=c1c(C(c2ccc(/C=C/c3ccccc3)cc2)c2c(O)oc3cc(O)ccc3c2=O)c(O)oc2cc(O)ccc12
GI50 (NCI/ADR-RES): > 100 µM (inactive)
GI50 (786-0): > 100 µM (inactive)
GI50 (UO-31): 56.9 µM (inactive)
GI50 (CCRF-CEM): 37.6 µM (inactive)
GI50 (HL-60): 27.5 µM (inactive)
GI50 (RXF 393): > 100 µM (inactive)
GI50 (BT-549): 98.9 µM (inactive)
GI50 (NCI-H460): > 100 µM (inactive)
GI50 (TK-10): > 100 µM (inactive)
GI50 (KM12): > 100 µM (inactive)
GI50 (CAKI-1): 55.3 µM (inactive)
GI50 (HCC 2998): > 100 µM (inactive)
GI50 (SF-268): 33.7 µM (inactive)
GI50 (SF-295): > 100 µM (inactive)
GI50 (HCT-116): > 100 µM (inactive)
GI50 (RPMI-8226): 39.6 µM (inactive)
GI50 (HCT-15): > 100 µM
GI50 (EKVX): > 100 µM (inactive)
GI50 (M14): > 100 µM (inactive)
GI50 (SNB-75): 29 µM (inactive)
GI50 (COLO 205): > 100 µM (inactive)
GI50 (SK-MEL-28): 11.3 µM (inactive)
GI50 (DU-145): > 100 µM (inactive)
GI50 (SW-620): 91.8 µM (inactive)
GI50 (A549): > 100 µM (inactive)
GI50 (SNB-19): > 100 µM (inactive)
GI50 (HOP-92): 75.2 µM (inactive)
GI50 (MCF7): 49.9 µM (inactive)
GI50 (OVCAR-3): > 100 µM (inactive)
GI50 (OVCAR-8): 98.6 µM (inactive)
GI50 (OVCAR-5): > 100 µM (inactive)
GI50 (SK-MEL-2): > 100 µM (inactive)
GI50 (MDA-MB-435): 82.2 µM (inactive)
GI50 (PC-3): > 100 µM (inactive)
GI50 (OVCAR-4): > 100 µM (inactive)
GI50 (SN12C): 48.4 µM (inactive)
GI50 (MDA-MB-231): > 100 µM (inactive)
GI50 (A498): > 100 µM (inactive)
GI50 (SK-MEL-5): 21.8 µM (inactive)
GI50 (UACC-62): > 100 µM (inactive)
GI50 (K562): 91.4 µM (inactive)
GI50 (SF-539): > 100 µM (inactive)
GI50 (LOX IMVI): 36.7 µM (inactive)
GI50 (NCI-H226): > 100 µM (inactive)
GI50 (NCI-H522): 52 µM (inactive)
GI50 (Hs-578T): 56.6 µM (inactive)
GI50 (U-251): 2.88 µM (inactive)
GI50 (MOLT-4): 20.9 µM (inactive)
GI50 (UACC-257): > 100 µM (inactive)
GI50 (HT-29): > 100 µM (inactive)
GI50 (T47D): 52.6 µM (inactive)
GI50 (MDA-N): 53.5 µM (inactive)
GI50 (HOP-62): > 100 µM (inactive)
GI50 (SK-OV-3): > 100 µM (inactive)
GI50 (ACHN): > 100 µM (inactive)
GI50 (IGROV-1): > 100 µM (inactive)
GI50 (Malme-3M): > 100 µM (inactive)
GI50 (NCI-H23): > 100 µM (inactive)
